Source: US20210251983A1, “METHODS OF TREATMENT WITH BUPRENORPHINE” (BioDelivery Sciences International, Inc., priority 2020, published 2021)
“Also recorded” adds a separate entry of the source.

What was measured:
[1] = Treatment-emergent adverse events
respiratory drive = assay: Ventilatory response to hypercapnia (VRH) test of respiratory drive, phase I placebo-controlled crossover trial
pupil diameter = assay: Pupillometry during VRH testing; format: in vivo, human; settings: time after dosing
[2] = Pharmacokinetic assessment - abuse quotient (plasma Cmax, Tmax, AUC0-last, AQ); settings: for AUC(0-t) / Cmax / Tmax: both, human, plasma, oral

COc1ccc2c3c1O[C@H]1C(=O)CC[C@@]4(O)[C@@H](C2)N(C)CC[C@]314.Cl [IR Oxycodone, oxycodone hydrochloride]
treatment-emergent adverse events ([1]; all doses): produced some adverse events | treatment-emergent adverse events ([1]; oxycodone 60 mg): highest percentage of adverse events in all categories | effect on respiratory drive (Emax) relative to placebo (respiratory drive; across all doses tested (BBF 300-900 μg; oxycodone 30, 60 mg), hydrochloride): dose-dependent decrease in respiratory drive; also recorded: decreased respiratory drive in a dose-dependent fashion | least square mean difference in Emax (maximum minute ventilation) versus placebo (respiratory drive; oral oxycodone 30 mg, P=0.668): −828.5 | least square mean difference in Emax (maximum minute ventilation) versus placebo (respiratory drive; oral oxycodone 60 mg, P=0.008): −5188.6 | minute ventilation relative to placebo (respiratory drive; oxycodone 30 mg): significant (P<0.05) decrease at one hour post-dose | Peak Expiratory Flow Rate (PEFR) relative to placebo (respiratory drive; oxycodone 30 mg, 1 hour post-dose): significant (P<0.05) decrease in PEFR at 1 hour post-dose | minute ventilation relative to placebo (respiratory drive; oxycodone 60 mg): significant (P<0.05) decreases at 1 hour, 2 hour, and 4 hours post-dose | Peak Expiratory Flow Rate (PEFR) relative to placebo (respiratory drive; oxycodone 60 mg, 30 minutes post-dose): significant (P<0.05) decrease at 30 minutes | Peak Expiratory Flow Rate (PEFR) relative to placebo (respiratory drive; oxycodone 60 mg, 1 hour post-dose): significant (P<0.05) decrease in PEFR at 1 hour post-dose | oxygen saturation level, one subject (adverse event) (respiratory drive; oxycodone 60 mg, approximately 1.5 hours after dosing): 86% | initial onset of statistically significant miosis (relative to placebo) (pupil diameter; oxycodone 30 mg): 0.5 h | initial onset of statistically significant miosis (relative to placebo) (pupil diameter; oxycodone 60 mg): 0.5 h | Cmax dependence on dose ([2]; BBF 300-900 μg, IR oxycodone 30, 60 mg): increased proportionally with dose | AUC(0-t) ([2]; 30 mg): 216 ng·h/mL | Cmax ([2]; 30 mg): 65.8 ng/mL | Tmax ([2]; 30 mg): 1.2 h | AUC(0-t) ([2]; 60 mg): 435 ng·h/mL | Cmax ([2]; 60 mg): 132 ng/mL | Tmax ([2]; 60 mg): 1.2 h
